Columns and labels:
PDE5 (human platelet) = biological target: T1, PDE5 (human platelet) (Homo sapiens, UniProt O76074); test: PDE5 (human platelet) inhibition; assay type: biochemical
T1 construct: PDE5 (human); from tissue; host or cells: human platelets

Rabbit Corpus Cavernosal = test: Relaxation of phenylephrine precontracted rabbit corpus cavernosal strips; assay type: cell-based; details: for IC50 / EC50: Oryctolagus cuniculus
Text: Recently some reports have stated that theophyllline has an adenosine […] antagonist and phosphodiesterase (PDE) inhibitor function. […] FIG. 4A illustrates the experimental results and the effects of compound 14 on phenylphrine precontracted rabbit corpus cavemosal in the absence and presence of L-NAME, methylene blue, ODQ. FIG. 4B illustrates the experimental results and the effects of compound 14 on phenylphrine precontracted rabbit corpus cavernosal in absence and presence of potassium channel blockers.

intracavernous pressure = test: Intracavernous pressure and tumescence response in rabbits; assay type: in vivo; details: 2 mg/kg in rabbits

Compound	IC50 (PDE5 (human platelet)) [nM]	IC50 (Rabbit Corpus Cavernosal) [nM]	Duration of tumescence response (intracavernous pressure) [min]	Peak increased intracavernous pressure ΔICP (mmHg) (intracavernous pressure)	also measured
7-[12-({5-[(4-methylpiperazin-1-yl)sulfonyl]-2-propoxybenzyl}amino)ethyl] dimethylxanthine [Compound 35]	0.4 ± 0.1	–	–	–	pEC50 (−log EC50) for relaxation (Rabbit Corpus Cavernosal): 8.25 ± 0.06
7-{2-[4-(nitrobenzene)piperazinyl]ethyl}-1,3-dimethylxanthine [Compound 9]	–	–	16 ± 1.2	25 ± 1.3	–
COc1ccccc1N1CCN(CCn2cnc3c2c(=O)n(C)c(=O)n3C)CC1 [Compound 10, 7-{2-[4-(o-Methoxyphenyl)piperazinyl]ethyl}-1,3-dimethylxanthine]	–	–	13 ± 2.1	12 ± 1.6	–
CC(C)Cn1c(=O)n(C)c(=O)c2c1ncn2CCN1CCN(c2ncccn2)CC1 [Compound 12, 7-{2-[4-(2-Pyrimidyl)piperazinyl]ethyl}-3-isobutyl-1-methylxanthine]	–	–	15 ± 1.3	23 ± 1.5	–
CC(C)Cn1c(=O)n(C)c(=O)c2c1ncn2CCN1CCN(C(=O)c2ccco2)CC1 [Compound 18, 7-{2-[4-(2-furoyl)piperazinyl]ethyl}-3-isobutyl-1-methylxanthine]	–	–	18 ± 1.3	26 ± 1.4	–
Cc1ccccc1S(=O)(=O)N1CCN(CCn2cnc3c2c(=O)n(C)c(=O)n3CC(C)C)CC1 [Compound 26, 7-(2-{4-[(2-methylphenyl)sulfonyl]piperazinyl}ethyl)-3-isobutyl-1-methylxanthine]	4.8 ± 0.2	38	–	–	–
CCOc1ccc(S(=O)(=O)N2CCN(C)CC2)cc1CNCCn1cnc2c1c(=O)n(C)c(=O)n2C [Compound 34, 7-[2-({5-[(4-methylpiperazin-1-yl)sulfonyl]-2-ethoxybenzyl}amino)ethyl] dimethylxanthine]	0.4 ± 0.2	–	–	–	pEC50 (−log EC50) for relaxation (Rabbit Corpus Cavernosal): 8.13 ± 0.05

Further lines, with some results ahead:

IC50 (PDE5 (human platelet)) [nM]	IC50 (Rabbit Corpus Cavernosal) [nM]	Compound	Duration of tumescence response (intracavernous pressure) [min]	Peak increased intracavernous pressure ΔICP (mmHg) (intracavernous pressure)	also measured
0.6 ± 0.2	–	7-{2-[(2-propoxybenzyl)aniino]ethyl}-3-isobutyl-1-methylxanthine [Compound 38]	–	–	pEC50 (−log EC50) for relaxation (Rabbit Corpus Cavernosal): 8.16 ± 0.07
3.9 ± 0.1	69.2	Cn1c(=O)c2c(ncn2CCN2CCN(c3ccccc3Cl)CC2)n(C)c1=O [Compound 4, 7-{2-[4-(2-chlorophenyl)piperazinyl]ethyl}-1,3-dimethylxanthine]	14 ± 1.1	14 ± 2.1	–
4.2 ± 0.2	74.1	Cn1c(=O)c2c(ncn2CCN2CCN(Cc3ccccc3)CC2)n(C)c1=O [Compound 7, 7-{2-[4-benzylpiperazinyl]ethyl}-1,3-dimethylxanthine]	–	–	–
3.8 ± 0.2	14.5	CC(C)Cn1c(=O)n(C)c(=O)c2c1ncn2CCN1CCN(c2ccccc2Cl)CC1 [Compound 14, 7-{2-[4-(2-chlorophenyl)piperazinyl]ethyl}-3-isobutyl-1-methylxanthine]	–	–	EC50 (Rabbit Corpus Cavernosal; Control (no drug pretreatment)): 64.6 nM; EC50 (Rabbit Corpus Cavernosal; pretreatment 4-AP 100 μM): 1480 nM; EC50 (Rabbit Corpus Cavernosal; pretreatment Glibenclamide 1 μM): 269 nM; EC50 (Rabbit Corpus Cavernosal; pretreatment L-NAME 100 μM): 309 nM; EC50 (Rabbit Corpus Cavernosal; pretreatment Methylene blue 10 μM): 309 nM; EC50 (Rabbit Corpus Cavernosal; pretreatment ODQ 1 μM): 162 nM; EC50 (Rabbit Corpus Cavernosal; pretreatment TEA 10 mM): 9180 nM
6.2 ± 0.2	22.9	CC(C)Cn1c(=O)n(C)c(=O)c2c1ncn2CCN1CCN(Cc2ccccc2)CC1 [Compound 17, 7-{2-[4-benzylpiperazinyl]ethyl}-3-isobutyl-1-methylxanthine]	–	–	–
0.8 ± 0.2	5.01	CCCOc1ccc(C(N)=O)cc1CNCCn1cnc2c1c(=O)n(C)c(=O)n2CC(C)C [Compound 41, 4-propoxy-3-({[2-(3-isobutyl-1-methyl-2,6-dioxo-1,2,3,6-tetrahydro-7H-purin-7-yl)ethyl]amino}methyl)benzamide]	–	–	–
5.2 ± 0.1	–	CCCn1cnc2c1c(=O)n(C)c(=O)n2CC(C)C [Compound 46]	–	–	pEC50 (−log EC50) for relaxation (Rabbit Corpus Cavernosal): 7.96 ± 0.03
